Source: patent publication US20220220123A1, “AMORPHOUS AND CRYSTALLINE FORMS OF RELUGOLIX” (DR. REDDY'S LABORATORIES LIMITED, priority 2019, published 2022)

Assay: storage stability of solid forms of relugolix
Format: physicochemical

Structure (SMILES) | stability of the crystalline form on storage (2-8° C.) | stability of the crystalline form on storage (25° C. and 60% RH (relative humidity)) | stability of the crystalline form on storage (40° C. and 75% RH (relative humidity)) | stability (found stable; in words) (no storage conditions or duration printed)
CONC(=O)Nc1ccc(-c2sc3c(c2CN(C)C)c(=O)n(-c2ccc(OC)nn2)c(=O)n3Cc2c(F)cccc2F)cc1 [crystalline form R1] | stable for at least three months | stable for at least three months | stable for at least three months | –
CONC(=O)Nc1ccc(-c2sc3c(c2CN(C)C)c(=O)n(-c2ccc(OC)nn2)c(=O)n3Cc2c(F)cccc2F)cc1 [amorphous relugolix] | – | – | – | stable
